Test results taken from US20150133411A1, “COMPOUNDS WITH TRPV4 ACTIVITY, COMPOSITIONS AND ASSOCIATED METHODS THEREOF” (The University of Utah Research Foundation, priority 2012, published 2015).

Legend:
Müller cells = test: Arachidonic acid-induced [Ca2+]i in Müller cells; type: cell-based; settings: 10 μM
Experimental: This response is blocked by Compound 1 (1 μM).

retinal ganglion cells [1] = test: TUNEL assay of apoptotic cell death in retinas; type: cell-based
Experimental: Terminal deoxynucleotidyl transferase-mediated dUTP-biotin nick end labeling (TUNEL) is a common method for detecting fragmentation that results from apoptotic signaling cascades. Retinas were embedded, cryosectioned, and processed for the TUNEL assay following the protocol by Gavrieli et al. (1992). After 30 min. rehydration in 70% ethanol, 2×5 min. rinses in PBS and 1% Triton-X in 1% citrate buffer (pH 7.3), the slides were subjected to a final rinse in PBS. Slides were then incubated for 30 min. in the reaction buffer (30 mM Trizma-HCl, 140 mM cacodylate, 1.0 mM CaCl2, 0.2% Triton X-100, pH 7.2). Positive controls were treated with DNAse I (Roche Diagnostics; Branford, Conn.; 10 U/ml) in the reaction buffer. Next, slides were treated for 1 hour with 0.03 units/μl terminal transferase and 4 μM biotin-16-dUTP (Roche Diagnostics). The reaction was terminated in 30 mM Na+ citrate, 300 mM NaCl and 0.2% Triton X-100 in PBS (5 min.) and rinsed in PBS (2×5 min), exposed to 1% bovine serum albumin in PBS for 20 min and rinsed. Apoptotic cells were visualized with a confocal microscope (Zeiss LSM510) and categorized by size. […] This was blocked by RuR and by the TRPV4 antagonist Compound 1.

MB model of glaucoma = test: IOP time course after single eye drop in MB model of glaucoma; type: in vivo, mouse; settings: eye drop
Experimental: Specifically, microbeads (MBs) were injected into the anterior chamber of a mouse eye as described in Example 2 with PBS-injected eyes used as controls. Compound 1 (10 mg/kg body weight) (or PBS vehicle) was injected intraperitoneally (IP). […] IOP was measured in mice between 10:00 AM and 1:00 PM with the TonoLab rebound tonometer (Colonial Medical Supply, Franconia, NH/Tyolat, Helsinki, Finland). Mice were sedated with IP injection of Avertin with final amount calculated by weight (e.g., 0.5 ml for 21-24 g animals). Animals were placed on a jack stand platform and the tonolab was clamped on a ring stand and centered onto the mid-cornea. During measurements animal were neither restrained nor touched. Each eye was measured twenty consecutive times, the highest and lowest values were discarded and the values were averaged.
FIG. 9 illustrates the short-term effects of a single dose of Compound 1 (eye drop) in the MB model of glaucoma. IOP was measured as described in Example 3 at the indicated time points after receiving a drop of Compound 1. Compound 1 reduced IOP beginning at 1 hour after dosing and continued through 6 hours after dosing.
FIG. 10 illustrates a time course of Compounds 1, 2, 5 and Compound 2-HCl as well as a positive control compound, timolol, with regard to inhibition of IOP. The experiment was conducted as described in Example 9. Each of the TRPV4 antagonists reduced IOP with a similar time course. Specifically, Compounds 1, 2, 5 and Compound 2-HCl reduced IOP for at least 6 hours after dosing.
FIG. 11 illustrates a time course of Compound 2-HCl activity. The experiment was conducted as described in Example 9. […] 2
FIG. 12 illustrates a comparison of the time course of Compound 2-HCl and Compound 5. The experiment was conducted as described in Example 9.

[2] = tested on: retinal neurons (RGCs) and glia (Müller cells); test: Hypotonic stimuli: cell swelling (change in cell area) and [Ca++]i; type: cell-based; settings: hypotonic stimuli, 300 mOsm to 190 mOsm
Description: FIG. 18A illustrates the effect of hypotonic stimuli on cell swelling as measured by change in cell area. Hypotonic stimuli were generated by replacing extracellular sodium levels to lower osmolarity from 300 mOsm to 190 mOsm.

TRPV4 [3] = target: T1, TRPV4 (Homo sapiens, UniProt Q9HBA0); test: Fura-2 calcium imaging of human trabecular meshwork (TM) cells; type: cell-based; settings: bath application 100 nM
T1 construct: endogenous in cells; host or cells: primary human trabecular meshwork cells from trabeculectomy tissue
T1 sequence (Q9HBA0 whole entry): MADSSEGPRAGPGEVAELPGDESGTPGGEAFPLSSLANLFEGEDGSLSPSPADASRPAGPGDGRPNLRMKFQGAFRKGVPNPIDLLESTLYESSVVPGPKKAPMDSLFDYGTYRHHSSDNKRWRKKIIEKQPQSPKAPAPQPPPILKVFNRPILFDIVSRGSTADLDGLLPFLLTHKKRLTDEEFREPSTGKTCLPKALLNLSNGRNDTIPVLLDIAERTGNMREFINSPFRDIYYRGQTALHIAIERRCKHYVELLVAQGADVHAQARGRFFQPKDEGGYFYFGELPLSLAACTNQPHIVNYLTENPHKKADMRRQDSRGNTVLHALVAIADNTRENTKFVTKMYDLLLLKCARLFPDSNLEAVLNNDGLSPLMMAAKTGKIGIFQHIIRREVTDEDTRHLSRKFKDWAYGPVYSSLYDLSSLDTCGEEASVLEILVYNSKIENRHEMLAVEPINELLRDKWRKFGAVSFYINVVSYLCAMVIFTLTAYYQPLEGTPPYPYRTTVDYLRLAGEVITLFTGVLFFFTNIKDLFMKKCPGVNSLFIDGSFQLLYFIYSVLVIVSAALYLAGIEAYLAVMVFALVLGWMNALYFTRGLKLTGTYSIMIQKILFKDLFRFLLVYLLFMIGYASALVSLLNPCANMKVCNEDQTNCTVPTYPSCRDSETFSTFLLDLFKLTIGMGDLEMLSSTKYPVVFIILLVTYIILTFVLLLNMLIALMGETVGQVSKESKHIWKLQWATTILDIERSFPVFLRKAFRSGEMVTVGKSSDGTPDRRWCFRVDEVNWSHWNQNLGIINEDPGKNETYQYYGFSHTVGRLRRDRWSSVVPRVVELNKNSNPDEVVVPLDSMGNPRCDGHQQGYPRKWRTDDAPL
Experimental: Pieces of tissue were isolated from a trabeculectomy. Trabecular meshwork cells (TM) were kept in cold L15 medium and then loaded with Fura-2 (10 μm) for 1 hour. Fibroblast-shaped cells were imaged from a TM chunk (˜500 μm×500 μm) with a 40× water immersion objective. The sampling rate was at 6 second intervals. Krebs Ringer Bicarbonate Recording buffer (7.4, 284 mOsm) was prepared as reported by Anthony et al., 1998, IOVS; Prostaglandin F2α receptors in the human trabecular meshwork.
Calcium imaging was performed on TM cells isolated from human patients. In brief, dissociated human TM cells embedded within the tissue were dissociated and plated on concanavalin A-coated (0.2 mg/ml; Sigma) coverslips, loaded with fura-2 AM ([…]; Invitrogen Life Technologies) for 15 min-1 hour and washed for 10 min in dye-free L-15 medium. […] Fluorescence emission was high-pass filtered at 510 nm and captured with cooled digital CCD cameras (HQ2, Photometrics). […] Fluorescence imaging was performed on regions of interest (ROIs) encompassing the TM cell somata, typically at 3×3 binning. Background fluorescence was measured in similarly sized ROIs in neighboring areas devoid of cells. After sequential image acquisition (0.167-0.5 Hz) of cell fluorescence at 340/380 nm, the background was subtracted. […]

retinal ganglion cells [4] = test: In vivo intraocular injection of GSK, NeuN+ RGC count; settings: intraocular injection 100-300 nM, retinas after 48 hours
Experimental: In this experiment, GSK (100-300 nM) was injected intraocularly with a Hamilton syringe. Retinas were isolated after 48 hours, fixed and labeled with the RGC marker antibody NeuN. NeuN-immunopositive somata in the ganglion cell layer, shown in the panel on the right, were counted. The bar graph represents quantification of NeuN^+ cells in the indicated experimental groups.

TRPV4 [5] = target: T2, TRPV4 (Mus musculus, UniProt Q9EPK8); test: GSK-evoked [Ca++]i in retinal Müller glial cells; type: cell-based; design: endogenous in cells; host or cells: retinal Müller glial cells; settings: retinal Müller glial cells; agonist alone
T2 sequence (Q9EPK8 whole entry): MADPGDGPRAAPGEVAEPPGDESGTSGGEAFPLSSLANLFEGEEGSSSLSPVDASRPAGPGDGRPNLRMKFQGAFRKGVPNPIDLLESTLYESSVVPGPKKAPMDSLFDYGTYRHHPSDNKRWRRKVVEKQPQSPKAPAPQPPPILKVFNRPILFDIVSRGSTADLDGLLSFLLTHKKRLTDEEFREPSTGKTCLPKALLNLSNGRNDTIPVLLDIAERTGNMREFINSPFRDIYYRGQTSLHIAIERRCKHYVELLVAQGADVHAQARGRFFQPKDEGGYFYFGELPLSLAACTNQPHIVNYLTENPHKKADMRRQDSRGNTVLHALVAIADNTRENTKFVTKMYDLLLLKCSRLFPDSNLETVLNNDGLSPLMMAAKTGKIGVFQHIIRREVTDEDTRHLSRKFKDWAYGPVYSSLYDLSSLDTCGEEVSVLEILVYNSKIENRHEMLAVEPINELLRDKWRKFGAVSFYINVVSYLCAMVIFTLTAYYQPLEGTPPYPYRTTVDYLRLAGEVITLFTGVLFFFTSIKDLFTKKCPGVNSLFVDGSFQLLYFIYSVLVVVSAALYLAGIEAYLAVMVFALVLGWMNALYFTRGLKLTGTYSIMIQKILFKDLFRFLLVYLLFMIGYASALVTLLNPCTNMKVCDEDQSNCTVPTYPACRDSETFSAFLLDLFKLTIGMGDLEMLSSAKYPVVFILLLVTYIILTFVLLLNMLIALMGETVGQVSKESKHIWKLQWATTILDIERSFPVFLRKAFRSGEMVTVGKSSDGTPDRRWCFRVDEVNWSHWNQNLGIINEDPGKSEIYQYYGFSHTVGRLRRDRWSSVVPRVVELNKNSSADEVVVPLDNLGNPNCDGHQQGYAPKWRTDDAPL

TRPV4 [6] = target: T2, TRPV4; test: AGB cation influx into retinal cells (anti-AGB antibody); type: cell-based; design: these two cell types express TRPV4 channels in the mouse retina; from tissue; host or cells: mouse retina (retinal ganglion cells and Müller glial cells); settings: mouse retina; agonist alone
Experimental: FIG. 16 illustrates the effect of the TRPV4 agonist GSK on cation influx into mouse retinal cells of the mouse retina. The influx was determined using the anti-AGB antibody, as described by Marc R E (J Comp Neurol 407(1): 47-64, 1999). AGB is a membrane permeant cation that can flow through most known cation channels. Using an anti-AGB antibody, it can be determined where the cation flux occurs and, therefore, which cells are activated.

SMILES: CCCCC/C=C\C/C=C\C/C=C\C/C=C\CCCC(=O)O [arachidonic acid, reference compound]
- [Ca2+]i response (Müller cells): increase in [Ca2+]i

SMILES: N.N.N.N.N.N.N.N.N.N.N.N.N.N.[Cl-].[Cl-].[Cl-].[Cl-].[Cl-].[Cl-].[O-2].[O-2].[Ru+3].[Ru+3].[Ru+4] [Ruthenium Red]
- apoptotic cell death induced by hypotonic swelling (TUNEL) (retinal ganglion cells [1]; 190 mOsm saline, Compound 1 1 uM, RuR 10 μM): block apoptotic cell death
- apoptotic cell death induced by TRPV4 agonist GSK (TUNEL) (retinal ganglion cells [1]; GSK 100 nM, Compound 1 1 uM, RuR 10 μM): block apoptotic cell death

SMILES: Cc1c(C(=O)Nc2cccc(C(=O)OC(C)C)c2)cc(-c2ccccc2)n1CCCN1CCOCC1.Cl [Compound 2-HCl, iso-propyl 3-(2-methyl-1-(3-morpholinopropyl)-5-phenyl-1H-pyrrole-3-carboxamido)benzoate hydrochloride]
- time of maximal inhibition of IOP (MB model of glaucoma; after dosing): 6 h

SMILES: CC(=O)OCOC(=O)CN(CC(=O)OCOC(C)=O)c1ccccc1OCCOc1ccccc1N(CC(=O)OCOC(C)=O)CC(=O)OCOC(C)=O [BAPTA-AM, reference compound]
- cell swelling (change in cell area) [2]: significantly reduced

SMILES: CC(C)C[C@H](NC(=O)c1cc2ccccc2s1)C(=O)N1CCN(C(=O)[C@H](CO)NS(=O)(=O)c2ccc(Cl)cc2Cl)CC1 [GSK1016790A, reference compound]
- 340/380 fluorescence ratio (intracellular calcium [Ca++]i) (TRPV4 [3]): increased 340/380 fluorescence ratio
- number of retinal ganglion cells (NeuN+ somata) (retinal ganglion cells [4]): substantially reduces the number of retinal ganglion cells
- death of retinal ganglion cells (TUNEL staining) (retinal ganglion cells [1]; 100 nM, agonist alone): induced death of retinal ganglion cells
- intracellular calcium concentration [Ca++]i (TRPV4 [5]): evokes sustained increases
- number of AGB+ cells (cation influx) (TRPV4 [6]): increased the number of AGB^+ retinal ganglion cells and Müller glial cells

SMILES: CC(C)(C)NC[C@H](O)COc1nsnc1N1CCOCC1 [timolol, reference compound]
- dose-response curve for inhibition of IOP relative to TRPV4 antagonists (MB model of glaucoma; positive control): left-shifted dose-response curve
